Consider 47 compounds from US9133167B2, “Antibacterial quinoline derivatives” (JANSSEN PHARMACEUTICA NV, priority 2012, dated 2015).

Values after ≈ are worked out from the molar mass of the structure shown.

For the first assay, the system named is Staphylococcus aureus (ATCC29213). The assay is described as follows: Microtitre plate assay, IC90 for bacterial growth, Staphylococcus aureus strain. It counts as cell-based. Particulars: 90% inhibitory concentration for bacterial growth, 24 hours at 37° C. The protocol:
D.2. In-Vitro Method for Testing Compounds for Anti-Bacterial Activity Against a Non-Mycobacterial Strain
Preparation of Bacterial Suspensions for Susceptibility Testing:
The bacteria used in this study were grown overnight in flasks containing 100 ml Mueller-Hinton Broth (Becton Dickinson—cat. no. 275730) in sterile de-ionized water, with shaking, at 37° C. Stocks (0.5 ml/tube) were stored at −70° C. until use. Bacteria titrations were performed in microtiter plates to detect the TCID50, in which TCID50 represents the dilution that gives rise to bacterial growth in 50% of inoculated cultures. In general, an inoculum level of approximately 100 TCID50 was used for susceptibility testing.
Anti Bacterial Susceptibility Testing: IC90 Determination
Flat-bottom, sterile 96-well plastic microtiter plates were filled with 180 μl of sterile deionized water, supplemented with 0.25% BSA. Subsequently, stock solutions (7.8× final test concentration) of compounds were added in 45 μl volumes in column 2 Serial five-fold dilutions (45 μl in 180 μl) were made directly in the microtiter plates from column 2 to reach column 11. Untreated control samples with (column 1) and without (column 12) inoculum were included in each microtiter plate. Depending on the bacteria type, approximately 10 to 60 CFU per well of bacteria inoculum (100 TCID50), in a volume of 100 μl in 2.8× Mueller-Hinton broth medium, was added to the rows A to H, except column 12. The same volume of broth medium without inoculum was added to column 12 in row A to H. The cultures were incubated at 37° C. for 24 hours under a normal atmosphere (incubator with open air valve and continuous ventilation). At the end of incubation, one day after inoculation, the bacterial growth was quantitated fluorometrically. Therefore resazurin (0.6 mg/ml) was added in a volume of 20 μl to all wells 3 hours after inoculation, and the plates were re-incubated overnight. A change in colour from blue to pink indicated the growth of bacteria. The fluorescence was read in a computer-controlled fluorometer (Cytofluor Biosearch) at an excitation wavelength of 530 nm and an emission wavelength of 590 nm. The % growth inhibition achieved by the compounds was calculated according to standard methods. The IC90 (expressed in μg/ml) was defined as the 90% inhibitory concentration for bacterial growth. The results are shown in Table 7 for an assay using a Staphylococcus aureus strain.
For `COc1nc2ccc(Br)cc2cc1C(c1ccc(F)c(C)c1)C1(O)CCN(Cc2ccccc2)CC1.O=C(O)/C=C/C(=O)O` (centres unmarked) [Compound 55], the “IC90 (μg/ml) STA B29213” value was above 43.09 µg/mL.

`COc1nc2ccc(Br)cc2cc1C(c1ccc(Cl)c(C)c1)C1(O)CCN(Cc2ccccc2)CC1` (centres unmarked) [Compound 48]: the “IC90 (μg/ml) STA B29213” value is above 35.71 µg/mL.

`COc1nc2ccc(Br)cc2cc1C(c1ccc(Cl)cc1)C1(O)CCN(Cc2ccccc2)CC1.O=C(O)C(=O)O` (centres unmarked) [Compound 36]: the “IC90 (μg/ml) STA B29213” value worked out at 32.85 µg/mL.

Regarding `COc1nc2ccc(Br)cc2cc1C(c1ccc(Cl)cc1)C1(O)CCN(CCc2ccccc2)CC1` (centres unmarked) [Compound 46], the “IC90 (μg/ml) STA B29213” value is above 35.71 µg/mL.

As for `COc1nc2ccc(-c3ccccc3)cc2cc1C(c1ccc(Cl)cc1)C1(O)CCN(Cc2ccc(C)cc2)CC1.O=C(O)/C=C/C(=O)O` (racemic) [Compound 69], the “IC90 (μg/ml) STA B29213” value is above 44.98 µg/mL.

In the case of `COc1nc2ccc(Br)cc2cc1C(c1ccccc1)C1(O)CCN(Cc2ccccc2)CC1` (centres unmarked) [Compound 29], the “IC90 (μg/ml) STA B29213” value worked out at 32.65 µg/mL (≈ 63.1 µM).

Turning to `COc1nc2ccc(-c3ccco3)cc2cc1C(c1ccc(Cl)cc1)C1(O)CCN(Cc2ccc(C)cc2)CC1.O=C(O)/C=C/C(=O)O` (racemic) [Compound 70], the “IC90 (μg/ml) STA B29213” value is above 44.71 µg/mL.

Take `CSc1nc2ccccc2cc1C(c1ccccc1)C1(O)CCN(Cc2ccccc2)CC1` (racemic) [Compound 32]: the “IC90 (μg/ml) STA B29213” value is above 28.69 µg/mL.

On to `COc1nc2ccc(-c3ccccc3)cc2cc1C(c1ccc(Cl)cc1)C1(O)CCN(Cc2ccccc2)CC1.O=C(O)/C=C/C(=O)O` (racemic) [Compound 51], for which the “IC90 (μg/ml) STA B29213” value was above 42.92 µg/mL.

Take `CSc1nc2ccc(C)cc2cc1C(c1ccccc1)C1(O)CCN(Cc2ccccc2)CC1` (racemic) [Compound 41]: the “IC90 (μg/ml) STA B29213” value was above 29.57 µg/mL.

For the compound `COc1nc2ccc(C(C)C)cc2cc1C(c1ccc(Cl)cc1)C1(O)CCN(Cc2ccccc2)CC1.O=C(O)/C=C/C(=O)O` (centres unmarked) [Compound 90], the “IC90 (μg/ml) STA B29213” value was above 41.36 µg/mL.

Turning to `COc1nc2ccc(Br)cc2cc1C(c1ccc2ccccc2c1)C1(O)CCN(Cc2ccccc2)CC1.O=C(O)/C=C/C(=O)O` (centres unmarked) [Compound 56], the “IC90 (μg/ml) STA B29213” value is above 44.60 µg/mL.

As for `O=C(O)/C=C/C(=O)O.OC1(C(c2ccc(Cl)cc2)c2cc3cc(Br)ccc3nc2N2CCOCC2)CCN(Cc2ccccc2)CC1` (centres unmarked) [Compound 77], the “IC90 (μg/ml) STA B29213” value was above 47.23 µg/mL.

In the case of `COc1nc2ccc(Br)cc2cc1C(c1ccc(Cl)c(C)c1)C1(O)CCN(Cc2ccccc2)CC1.O=C(O)/C=C/C(=O)O` (centres unmarked) [Compound 49], the “IC90 (μg/ml) STA B29213” value is above 44.06 µg/mL.

`O=c1[nH]c2ccc(-c3cccnc3)cc2cc1C(c1ccc(Cl)cc1)C1(O)CCN(Cc2ccccc2)CC1` (centres unmarked) [Compound 78]: the “IC90 (μg/ml) STA B29213” value turned out to be 13.47 µg/mL (≈ 25.1 µM).

With `COc1nc2ccc(Br)cc2cc1C(c1ccco1)C1(O)CCN(Cc2ccccc2)CC1.O=C(O)/C=C/C(=O)O` (centres unmarked) [Compound 68], the “IC90 (μg/ml) STA B29213” value was above 40.66 µg/mL.

For `O=C(O)/C=C/C(=O)O.OC1(C(c2ccc(Cl)cc2)c2cc3cc(Br)ccc3nc2N2CCCCC2)CCN(Cc2ccccc2)CC1` (centres unmarked) [Compound 87], the “IC90 (μg/ml) STA B29213” value was above 48.13 µg/mL.

For `O=c1[nH]c2ccc(Br)cc2cc1C(c1ccc(Cl)cc1)C1(O)CCNCC1` (centres unmarked) [Compound 79], the “IC90 (μg/ml) STA B29213” value was 28.25 µg/mL (≈ 63.1 µM).

Turning to `COc1nc2cc(Br)ccc2cc1C(c1ccccc1)C1(O)CCN(Cc2ccccc2)CC1` (racemic) [Compound 43], the “IC90 (μg/ml) STA B29213” value turned out to be 20.60 µg/mL (≈ 39.8 µM).

Consider `COc1nc2ccc(Br)cc2cc1C(c1ccc(Cl)cc1)C1(O)CCNCC1.O=C(O)/C=C/C(=O)O` (centres unmarked) [Compound 45], for which the “IC90 (μg/ml) STA B29213” value stood at 19.23 µg/mL.

As to `COc1nc2ccc(C(F)(F)F)cc2cc1C(c1ccc(Cl)cc1)C1(O)CCN(Cc2ccccc2)CC1.O=C(O)/C=C/C(=O)O` (centres unmarked) [Compound 86], the “IC90 (μg/ml) STA B29213” value is above 43.95 µg/mL.

As to `COc1nc2ccc(Br)cc2cc1C(c1ccc(Cl)c(Cl)c1)C1(O)CCN(Cc2ccccc2)CC1.O=C(O)/C=C/C(=O)O` (centres unmarked) [Compound 65], the “IC90 (μg/ml) STA B29213” value is above 46.15 µg/mL.

As to `COc1ccc(C(c2cc3cc(Br)ccc3nc2OC)C2(O)CCN(Cc3ccccc3)CC2)cc1` (centres unmarked) [Compound 40], the “IC90 (μg/ml) STA B29213” value was determined as 13.75 µg/mL (≈ 25.1 µM).

As for `COc1nc2cccc(Br)c2cc1C(c1ccccc1)C1(O)CCN(Cc2ccccc2)CC1` (racemic) [Compound 44], the “IC90 (μg/ml) STA B29213” value was above 32.65 µg/mL.

Take `O=c1[nH]c2ccc(Br)cc2cc1C(c1ccc(Cl)cc1)C1(O)CCN(CCc2ccccc2)CC1` (centres unmarked) [Compound 74]: the “IC90 (μg/ml) STA B29213” value stood at 6.95 µg/mL (≈ 12.6 µM).

In the case of `COc1nc2ccc(Br)cc2cc1C(c1cccc(Cl)c1)C1(O)CCN(Cc2ccccc2)CC1` (centres unmarked) [Compound 59], the “IC90 (μg/ml) STA B29213” value turned out to be 17.45 µg/mL (≈ 31.6 µM).

As for `COc1nc2ccc(-c3ccco3)cc2cc1C(c1ccccc1)C1(O)CCN(Cc2ccccc2)CC1` (racemic) [Compound 37], the “IC90 (μg/ml) STA B29213” value is above 31.84 µg/mL.

On to `COc1nc2ccc(Br)cc2cc1C(c1ccccc1Cl)C1(O)CCN(Cc2ccccc2)CC1.O=C(O)/C=C/C(=O)O` (racemic) [Compound 67], for which the “IC90 (μg/ml) STA B29213” value is above 43.98 µg/mL.

`COc1nc2ccc(Br)cc2cc1C(c1ccc(Cl)cc1)C1(O)CCN(Cc2ccccc2)CC1.O=C(O)/C=C/C(=O)O` (centres unmarked) [Compound 35]: the “IC90 (μg/ml) STA B29213” value is above 43.03 µg/mL.

Consider `COc1nc2ccc(Br)cc2cc1C(c1ccc(F)cc1)C1(O)CCN(Cc2ccccc2)CC1.O=C(O)/C=C/C(=O)O` (racemic) [Compound 72], for which the “IC90 (μg/ml) STA B29213” value was 33.82 µg/mL.

As to `COc1nc2ccc(-c3cccnc3)cc2cc1C(c1ccc(Cl)cc1)C1(O)CCN(Cc2ccccc2)CC1.O=C(O)/C=C/C(=O)O` (racemic) [Compound 50], the “IC90 (μg/ml) STA B29213” value is above 43.79 µg/mL.

As for `COc1nc2ccc(Br)cc2cc1C(c1ccc(Cl)cc1)C1(O)CCN(Cc2ccccc2C)CC1.O=C(O)/C=C/C(=O)O` (centres unmarked) [Compound 63], the “IC90 (μg/ml) STA B29213” value was above 44.79 µg/mL.

Take `COc1nc2ccc(-c3ccccc3)cc2cc1C(c1ccc(Cl)cc1)C1(O)CCN(CCc2ccccc2)CC1.O=C(O)/C=C/C(=O)O` (racemic) [Compound 89]: the “IC90 (μg/ml) STA B29213” value was above 44.39 µg/mL.

For `COc1nc2ccc(Br)cc2cc1C(c1cccnc1)C1(O)CCN(Cc2ccccc2)CC1.O=C(O)/C=C/C(=O)O` (centres unmarked) [Compound 57], the “IC90 (μg/ml) STA B29213” value amounted to 20.32 µg/mL.

As to `COc1nc2ccc(Br)cc2cc1C(c1ccc(C)cc1)C1(O)CCN(Cc2ccccc2)CC1` (centres unmarked) [Compound 39], the “IC90 (μg/ml) STA B29213” value stood at 33.54 µg/mL (≈ 63.1 µM).

For the compound `COc1nc2ccc(Br)cc2cc1C(C1Oc2ccccc2O1)C1(O)CCN(Cc2ccccc2)CC1.O=C(O)/C=C/C(=O)O` (centres unmarked) [Compound 85], the “IC90 (μg/ml) STA B29213” value turned out to be 34.54 µg/mL.

Take `COc1nc2ccc(Br)cc2cc1C(c1cccc(Cl)c1)C1(O)CCN(Cc2ccccc2)CC1.O=C(O)/C=C/C(=O)O` (centres unmarked) [Compound 60]: the “IC90 (μg/ml) STA B29213” value was above 43.03 µg/mL.

Turning to `COc1nc2ccc(C#N)cc2cc1C(c1ccc(Cl)cc1)C1(O)CCN(Cc2ccc(C)cc2)CC1` (centres unmarked) [Compound 76], the “IC90 (μg/ml) STA B29213” value was above 21.99 µg/mL.

Regarding `COc1nc2ccc(Br)cc2cc1C(c1ccccc1)C1(O)CCN(Cc2cccc(C)c2)CC1` (centres unmarked) [Compound 38], the “IC90 (μg/ml) STA B29213” value was above 33.54 µg/mL.

On to `COc1nc2ccc(Br)cc2cc1C(c1ccc(Cl)c(C(F)(F)F)c1)C1(O)CCN(Cc2ccccc2)CC1.O=C(O)/C=C/C(=O)O` (racemic) [Compound 66], for which the “IC90 (μg/ml) STA B29213” value was above 49.51 µg/mL.

In the case of `COc1nc2ccc(-c3cccnc3)cc2cc1C(c1ccc(Cl)cc1)C1(O)CCN(Cc2ccc(C)cc2)CC1.O=C(O)/C=C/C(=O)O` (racemic) [Compound 71], the “IC90 (μg/ml) STA B29213” value was above 44.46 µg/mL.

For `COc1nc2ccccc2cc1C(c1ccc(Cl)cc1)C1(O)CCN(Cc2ccccc2)CC1.O=C(O)/C=C/C(=O)O` (racemic) [Compound 52], the “IC90 (μg/ml) STA B29213” value came out at 19.77 µg/mL.

As to `COc1nc2ccc(Br)cc2cc1C(c1cccc(F)c1)C1(O)CCN(Cc2ccccc2)CC1` (racemic) [Compound 84], the “IC90 (μg/ml) STA B29213” value was above 33.79 µg/mL.

Still in this assay, the particulars now being: 90% inhibitory concentration for bacterial growth, 24 hours at 37° C., read-out: IC90 (μg/ml) STA B29213.
On to `COc1nc2ccc(Br)cc2cc1C(c1ccccc1)C1(O)CCN(CCc2ccccc2)CC1` (centres unmarked) [Compound 5], for which the IC90 worked out at 8.42 µg/mL (≈ 15.8 µM).

`COc1nc2ccc(Br)cc2cc1[C@@H](c1ccc(Cl)cc1)C1(O)CCN(Cc2ccccc2)CC1` [Compound 7]: the IC90 was above 34.8 µg/mL.

Take `COc1nc2ccc(Br)cc2cc1[C@H](c1ccc(Cl)cc1)C1(O)CCN(Cc2ccccc2)CC1` [Compound 8]: the IC90 was above 34.8 µg/mL.

Turning to `COc1nc2ccc(-c3ccccc3)cc2cc1C(c1ccccc1)C1(O)CCN(Cc2ccccc2)CC1` (centres unmarked) [Compound 4], the IC90 was above 32.5 µg/mL.
